Results: patent US20030134859A1 (SANKYO COMPANY, LIMITED, priority 2000, published 2003)

The compounds below were run on ABCA1 mRNA (assay: Quantitative analysis of ABCA1 mRNA (TaqMan PCR) in RAW264.7 cells). Details: 100 nM test compound, 24 hr, normalised to β-actin, DMSO = 100.
Format: cell-based, mouse
Description: The mouse monocyte/macrophage cell line, RAW264.7 (ATCC TIB71) was purchased from Dainippon Pharmaceutical Co., Ltd. As the medium, the Dulbecco's modified Eagle's medium (DMEM medium; GIBCO, Cat. No. 11995-040) containing bovine fetal serum (the final concentration: 10% (v/v), MOREGATE, lot No. 474030), penicillin G (the final concentration: 50 units/mL, GIBCO) and streptomycin (the final concentration: 20 μg/mL, GIBCO) was used.
The culture of RAW264.7 cells was carried out in a CO2 incubator (37° C., 95% R.H., 5% of CO2).
A 2 ml volume of RAW264.7 cells suspension (1×10^6 cells/mL) was plated in each well of a 6-well plate (2×10^6 cells/well) and the cells were incubated for 2 hr in a CO2 incubator. The test compounds dissolved in DMSO were diluted with DMEM medium by 20 times, and were added to the wells at a volume of 4 μL/well (final concentration of the test compound: 100 nM). As the control, the DMSO solution was diluted with the DMEM medium by 20 times, and was added to the wells at the volume of 4 μL/well. After the cells were cultured in a CO2 incubator for 24 hr, the medium was removed and the total RNA was purified by using an RNeasy Mini Kit (Qiagen), according to the protocol attached. The concentration of the RNA in the samples obtained was calculated from absorbance at 260 nm (A260=1=40 μg/ml). Six (6) μg of total RNA were diluted with RNAase-free water so as to be 22.6 μL, which was heated at 65° C. for 10 min, and then was cooled on ice. The RNA in the solution was used as the template, and the cDNA was synthesized by using a First-strand cDNA Synthesis Kit (Amersham Pharmacia Biotech). In this reaction, a solution was prepared having the following composition and was reacted at 37° C. for 1 hr.
After the reaction, 3 μL of soution were collected from each of the reaction mixtures of the test compound-treated cell samples and that of the control cell samples. The mixed solution was used as the standard solution. The standard solution and each reaction solution were purified with a Chroma Spin-100+DEPC-H2O Column according to the protocol attached, and they were used as the template for TaqMan PCR (Template). In order to draw the calibration curve, the standard solution was diluted by every 5 times for 5 steps and each solution was used for TaqMan PCR. TaqMan PCR was carried out in ABCA1 and β-actin. As Primers for use in the TaqMan PCR, 4 oligonucleotides (abca1 forward (S3), abca1 reverse (AS3), β-actin forward (S4) and β-actin reverse (AS4)) were designed which are shown in sequences No. 5 to 8 in the sequence table described later. The synthesis and purification of these 4 oligomers was ordered from Amersham Pharmacia Biotech Co.
As FAM-TAMRA labelled TaqMan Probe, 2 kinds of oligonucleotides (abca1 (p1) and β-actin (p2)) were designed and were ordered from Applied Biosystems Co. to synthesize and purify.
The following reaction mixture of ABCA1 or β-actin was divided into 2 wells of a MicroAmp Optical 96-well Reaction Plate (Applied Biosystem Co.). TaqMan Universal PCR Master Mix was purchased from Applied Biosystem Co.
The plate was covered with a MicroAmp Optical Cap (Applied Biosystems Co.), and TaqMan PCR was carried out by using an ABI PRISM 7,700 Sequence Detection System (Applied Biosystem Co.) under the following conditions:
An analysis was made according to the procedures described in the manual of Sequence Detection Software (Applied Biosystem Co.) and the increased rate of ABCA1 mRNA due to the test compound was calculated based on the following equation.
A: Amount of the ABCA1 mRNA in the presence of the test compound
B: Amount of the β-actin mRNA in the presence of the test compound
C: Amount of the ABCA1 mRNA in the presence of DMSO
D: Amount of the β-actin mRNA in the presence of DMSO
Increase Rate (%) of ABCA1 mRNA=(A/B)/(C/D)×100

SMILES | Rate of Increase (%) of ABCA1 mRNA
CCCCCCCCN(CCCC)c1ccc(-c2ccc(NC(=O)c3cc([N+](=O)[O-])ccc3Cl)cc2)cc1.Cl [Example 223, N-[4-[4-(N-Butyl-N-octylamino)phenyl]phenyl]-(2-chloro-5-nitrophenyl)carboxamide mono-hydrochloride] | 204.0%
CCCCCCCCN(CCC)c1ccc(-c2ccc(NC(=O)c3cc([N+](=O)[O-])ccc3Cl)cc2)cc1 [Example 224, N-[4-[4-(N-Octyl-N-propylamino)phenyl]phenyl]-(2-chloro-5-nitrophenyl)carboxamide] | 179.0%
O=C(Nc1ccc(CCNC(=S)Nc2cccnc2)cc1)c1cc([N+](=O)[O-])ccc1Cl [Example 273, N-[4-[2-(Pyridin-3-yl)aminothiocarbonylaminoethyl]phenyl]-(2-chloro-5-nitrophenyl)carboxamide] | 146.0%
